According to US20140357713A1, “ANTIMICROBIAL COMPOUNDS AND METHODS OF USE” (NexMed Holdings, Inc., priority 2012, published 2014):
Read-outs that look alike come from different tables or passages of the source.

Columns and labels:
Experiment in all cases: MIC assay with different strains, Example 35
Type in all cases: cell-based
[1] = test system: Staphylococcus haemolyticus (ATCC 29970)
Procedure: (§1) The minimum inhibitory concentration (MIC) is used to determine the lowest concentration of a test product claiming antimicrobial effects that will inhibit growth of a microorganism. Each microbial suspension was adjusted approximately 10^7 to 10^8 colony forming units (CFU) per mL and labeled as the stock suspension. The stock suspension was further diluted to 1:200 in Mueller Hinton broth to obtain a test sample having a concentration of […]. The test sample was then tested for MIC as described in M202.R02. After incubation, each tube was examined for turbidity, which indicated growth or no growth. For the tubes where the product rendered the media turbid, an aliquot of the media was streaked onto agar plates to confirm growth or lack of growth.

[2] = test system: Bacillus subtilis (ATCC 6633)
Procedure: as §1

[3] = test system: Proteus mirabilis (ATCC 7002)
Procedure: as §1

[4] = test system: Streptococcus pneumonia (ATCC 6303)
Procedure: as §1

[5] = test system: Staphylococcus aureus (MRSA) (ATCC 33592)
Procedure: as §1

[6] = test system: Staphylococcus epidermidis (ATCC 12228)
Procedure: as §1

[7] = test system: Enterobacter cloacae (ATCC 13047)
Procedure: as §1

[8] = test system: Enterococcus faecalis (ATCC 51299)
Procedure: as §1

[9] = test system: Candida albicans (ATCC 10231)
Procedure: as §1

[10] = test system: Micrococcus luteus (ATCC 4698)
Procedure: as §1

[11] = test system: Escherichia coli ATCC 25922
Procedure: as §1

[12] = test system: Klebsiella oxytoca (ATCC 43165)
Procedure: as §1

[13] = test system: Pseudomonas aeruginosa (ATCC 9027)
Procedure: as §1

[14] = test system: Corynebacterium jeikeium (ATCC 43734)
Procedure: as §1

[15] = test system: Staphylococcus hominis (ATCC 27844)
Procedure: as §1

[16] = test system: Enterobacter aerogenes (ATCC 13048)
Procedure: as §1

Structure (SMILES): CCCCCCCCCCCCOC(=O)C(C)NC.Cl (centres unmarked) [Nex-59, Dodecyl 2-(methylamino)propanoate hydrochloride]
- MIC ([1]; Example 35): 0.02%
- Growth/no growth ([1]; Sample Concentration 0.01%): Growth
- Growth/no growth ([1]; Sample Concentration 0.02%): No
- Growth/no growth ([1]; Sample Concentration 0.04%): No
- Growth/no growth ([1]; Sample Concentration 0.08%): No
- Growth/no growth ([1]; Sample Concentration 0.16%): No
- Growth/no growth ([1]; Sample Concentration 0.32%): No
- Growth/no growth ([1]; Sample Concentration 0.63%): No
- Growth/no growth ([1]; Sample Concentration 1.25%): No
- Growth/no growth ([1]; Sample Concentration 2.5%): No
- MIC ([1]; Staphylococcus haemolyticus, ATCC29970, Table 19 summary, read-out: MIC): 200 µg/mL
- MIC ([2]; Bacillus subtilis, ATCC6633, Table 19 summary, read-out: MIC): 400 µg/mL
- MIC ([2]; Example 35): 0.04%
- Growth/no growth ([2]; Sample Concentration 0.01%): Growth
- Growth/no growth ([2]; Sample Concentration 0.02%): Growth
- MIC ([3]; Example 35): 0.32%
- MIC ([3]; Proteus mirabilis, ATCC7002, Table 19 summary, read-out: MIC): 3200 µg/mL
- Growth/no growth ([3]; Sample Concentration 0.01%): Growth
- Growth/no growth ([3]; Sample Concentration 0.02%): Growth
- Growth/no growth ([3]; Sample Concentration 0.04%): Growth
- Growth/no growth ([3]; Sample Concentration 0.08%): Growth
- Growth/no growth ([3]; Sample Concentration 0.16%): Growth
- MIC ([4]; Example 35): 0.32%
- Growth/no growth ([4]; Sample Concentration 0.01%): Growth
- Growth/no growth ([4]; Sample Concentration 0.02%): Growth
- Growth/no growth ([4]; Sample Concentration 0.04%): Growth
- Growth/no growth ([4]; Sample Concentration 0.08%): Growth
- Growth/no growth ([4]; Sample Concentration 0.16%): Growth
- MIC ([4]; Streptococcus pneumoniae, ATCC6303, Table 19 summary, read-out: MIC): 3200 µg/mL
- MIC ([5]; Example 35): 0.02%
- Growth/no growth ([5]; Sample Concentration 0.01%): Growth
- Growth/no growth ([5]; Sample Concentration 0.02%): No
- Growth/no growth ([5]; Sample Concentration 0.04%): No
- Growth/no growth ([5]; Sample Concentration 0.08%): No
- Growth/no growth ([5]; Sample Concentration 0.16%): No
- Growth/no growth ([5]; Sample Concentration 0.32%): No
- Growth/no growth ([5]; Sample Concentration 0.63%): No
- Growth/no growth ([5]; Sample Concentration 1.25%): No
- Growth/no growth ([5]; Sample Concentration 2.5%): No
- MIC ([5]; Staphylococcus aureus, Table 19 summary, read-out: MIC): 200 µg/mL
- MIC ([6]; Example 35): 0.02%
- Growth/no growth ([6]; Sample Concentration 0.01%): Growth
- Growth/no growth ([6]; Sample Concentration 0.02%): No
- Growth/no growth ([6]; Sample Concentration 0.04%): No
- Growth/no growth ([6]; Sample Concentration 0.08%): No
- Growth/no growth ([6]; Sample Concentration 0.16%): No
- Growth/no growth ([6]; Sample Concentration 0.32%): No
- Growth/no growth ([6]; Sample Concentration 0.63%): No
- Growth/no growth ([6]; Sample Concentration 1.25%): No
- Growth/no growth ([6]; Sample Concentration 2.5%): No
- MIC ([6]; Staphylococcus epidermidis, ATCC12228, Table 19 summary, read-out: MIC): 200 µg/mL
- MIC ([7]; Enterobacter cloacae, ATCC13047, Table 19 summary, read-out: MIC): 1600 µg/mL
- MIC ([7]; Example 35): 0.16%
- Growth/no growth ([7]; Sample Concentration 0.01%): Growth
- Growth/no growth ([7]; Sample Concentration 0.02%): Growth
- Growth/no growth ([7]; Sample Concentration 0.04%): Growth
- Growth/no growth ([7]; Sample Concentration 0.08%): Growth
- MIC ([8]; Enterococcus faecalis, ATCC51299, Table 19 summary, read-out: MIC): 400 µg/mL
- MIC ([8]; Example 35): 0.04%
- Growth/no growth ([8]; Sample Concentration 0.01%): Growth
- Growth/no growth ([8]; Sample Concentration 0.02%): Growth
- Growth/no growth ([8]; Sample Concentration 0.04%): No
- Growth/no growth ([8]; Sample Concentration 0.08%): No
- Growth/no growth ([8]; Sample Concentration 0.16%): No
- Growth/no growth ([8]; Sample Concentration 0.32%): No
- Growth/no growth ([8]; Sample Concentration 0.63%): No
- Growth/no growth ([8]; Sample Concentration 1.25%): No
- Growth/no growth ([8]; Sample Concentration 2.5%): No
- MIC ([9]; Candida albicans, ATCC10231, Table 19 summary, read-out: MIC): 400 µg/mL
- MIC ([9]; Example 35): 0.04%
- Growth/no growth ([9]; Sample Concentration 0.01%): Growth
- Growth/no growth ([9]; Sample Concentration 0.02%): Growth
- MIC ([10]; Example 35): 0.02%
- MIC ([10]; Micrococcus luteus, ATCC4698, Table 19 summary, read-out: MIC): 200 µg/mL
- Growth/no growth ([10]; Sample Concentration 0.01%): Growth
- Growth/no growth ([10]; Sample Concentration 0.02%): No
- Growth/no growth ([10]; Sample Concentration 0.04%): No
- Growth/no growth ([10]; Sample Concentration 0.08%): No
- Growth/no growth ([10]; Sample Concentration 0.16%): No
- Growth/no growth ([10]; Sample Concentration 0.32%): No
- Growth/no growth ([10]; Sample Concentration 0.63%): No
- Growth/no growth ([10]; Sample Concentration 1.25%): No
- Growth/no growth ([10]; Sample Concentration 2.5%): No
- MIC ([11]; Example 35): 0.16%
- Growth/no growth ([11]; Sample Concentration 0.01%): Growth
- Growth/no growth ([11]; Sample Concentration 0.02%): Growth
- Growth/no growth ([11]; Sample Concentration 0.04%): Growth
- Growth/no growth ([11]; Sample Concentration 0.08%): Growth
- Growth/no growth ([11]; Sample Concentration 0.16%): No
- Growth/no growth ([11]; Sample Concentration 0.32%): No
- Growth/no growth ([11]; Sample Concentration 0.63%): No
- Growth/no growth ([11]; Sample Concentration 1.25%): No
- Growth/no growth ([11]; Sample Concentration 2.5%): No
- MIC ([12]; Example 35): 0.63%
- MIC ([12]; Klebsiella oxytoca, ATCC 43165 / ATCC 43615, Table 19 summary, strain printed ATCC 43615, read-out: MIC): 6300 µg/mL
- Growth/no growth ([12]; Sample Concentration 0.01%): Growth
- Growth/no growth ([12]; Sample Concentration 0.02%): Growth
- Growth/no growth ([12]; Sample Concentration 0.04%): Growth
- Growth/no growth ([12]; Sample Concentration 0.08%): Growth
- Growth/no growth ([12]; Sample Concentration 0.16%): Growth
- Growth/no growth ([12]; Sample Concentration 0.32%): Growth
- Growth/no growth ([12]; Sample Concentration 0.63%): No
- Growth/no growth ([12]; Sample Concentration 1.25%): No
- Growth/no growth ([12]; Sample Concentration 2.5%): No
- MIC ([13]; Example 35): 0.16%
- MIC ([13]; Pseudomonas aeruginosa, ATCC9027, Table 19 summary, read-out: MIC): 1600 µg/mL
- Growth/no growth ([13]; Sample Concentration 0.01%): Growth
- Growth/no growth ([13]; Sample Concentration 0.02%): Growth
- Growth/no growth ([13]; Sample Concentration 0.04%): Growth
- Growth/no growth ([13]; Sample Concentration 0.08%): Growth
- MIC ([14]; Corynebacterium jeikeium, ATCC43734, Table 19 summary, read-out: MIC): ≥ 100 µg/mL
- MIC ([14]; Example 35): ≦0.01%
- Growth/no growth ([14]; Sample Concentration 0.01%): No
- Growth/no growth ([14]; Sample Concentration 0.02%): No
- Growth/no growth ([14]; Sample Concentration 0.04%): No
- Growth/no growth ([14]; Sample Concentration 0.08%): No
- Growth/no growth ([14]; Sample Concentration 0.16%): No
- Growth/no growth ([14]; Sample Concentration 0.32%): No
- Growth/no growth ([14]; Sample Concentration 0.63%): No
- Growth/no growth ([14]; Sample Concentration 1.25%): No
- Growth/no growth ([14]; Sample Concentration 2.5%): No
- MIC ([15]; Example 35): 0.02%
- Growth/no growth ([15]; Sample Concentration 0.01%): Growth
- Growth/no growth ([15]; Sample Concentration 0.02%): No
- Growth/no growth ([15]; Sample Concentration 0.04%): No
- Growth/no growth ([15]; Sample Concentration 0.08%): No
- Growth/no growth ([15]; Sample Concentration 0.16%): No
- Growth/no growth ([15]; Sample Concentration 0.32%): No
- Growth/no growth ([15]; Sample Concentration 0.63%): No
- Growth/no growth ([15]; Sample Concentration 1.25%): No
- Growth/no growth ([15]; Sample Concentration 2.5%): No
- MIC ([15]; Staphylococcus hominis, ATCC27844, Table 19 summary, read-out: MIC): 200 µg/mL
- MIC ([16]; Example 35): 0.16%
- MIC ([16]; Klebsiella aerogenes, ATCC13048, Table 19 summary, read-out: MIC): 1600 µg/mL
- Growth/no growth ([16]; Sample Concentration 0.01%): Growth
- Growth/no growth ([16]; Sample Concentration 0.02%): Growth
- Growth/no growth ([16]; Sample Concentration 0.04%): Growth
- Growth/no growth ([16]; Sample Concentration 0.08%): Growth
- Growth/no growth ([16]; Sample Concentration 0.16%): No
- Growth/no growth ([16]; Sample Concentration 0.32%): No
- Growth/no growth ([16]; Sample Concentration 0.63%): No
- Growth/no growth ([16]; Sample Concentration 1.25%): No
- Growth/no growth ([16]; Sample Concentration 2.5%): No
